# Where a SMILES comes first, the peptide text is derived from it.
# Assays:
# HaCat cell line = assay: In vitro HaCat cytotoxicity (MTT); type: cell-based, human; settings: 21 h exposure, OD570, relative to untreated control
# Procedure: The HaCat cell line (Cellonex, South Africa) was cultured in Dulbecco’s Modified Eagle Medium (DMEM) supplemented with 10% heat-inactivated fetal calf serum (FCS) and 1% antibiotic-antimycotic (Abs) and maintained at 5–10% CO2, 37 °C, 95% humidity. For cytotoxicity screening, 5.56 × 10^4 cells/mL were plated in a 96-well plate. After 24 h incubation, the cells are initially exposed to each peptide at a concentration of 256 μg/mL or 0.1% Triton-X-100 as the control for 21 h. If cytotoxicity was observed, at a level of significance of p < 0.0001 compared with the untreated control after 21 h, a dose-response assay was undertaken. Cell viability was determined by adding 10% 3-(4,5-dimethyl-2-thiazolyl)-2,5-diphenyl-2H-tetrazolium bromide (MTT) (1 mg/mL), to each well and after a further 3 h incubation the media was discarded, and the formazan crystals dissolved by adding 25% DMSO in ethanol. The absorbance was measured at OD570 by using the FLUOstar Omega multidetection microplate reader (BMG Labtech). Percentage cell viability was calculated relative to the untreated control. The LC50 was defined as the concentration of AMP treatment that results in 50% lethality of HaCat cells and was determined from the dose-response curves.
# human erythrocytes = assay: In vitro hemolytic activity; type: cell-based; settings: human erythrocytes in PBS, 1 h, 37 °C, OD550, from dose response curves
# Procedure: Potential erythrocyte hemolysis was tested by incubating serial dilutions of the AMPs in PBS with freshly collected erythrocytes at a ratio of 1:1 in 96-well polypropylene V-shape plates for 1 h at 37 °C. Control wells were treated with 0.1% Triton-X-100 to ensure complete lysis or PBS-only to represent no lysis. The erythrocytes were collected by centrifugation and the OD550 of the supernatant was measured using a plate reader. The percentage hemolysis was calculated as [drawing 1] 1 where Apeptide is the absorbance value of erythrocytes exposed to a known peptide concentration, Agrowth control is the absorbance of erythrocytes exposed to 0.1% Triton-X-100 and Ablank is the absorbance of erythrocytes exposed to the PBS. The concentrations at which a peptide caused 10% (HC10) and 50% (HC50) hemolysis was determined from the dose response curves.
# K. pneumoniae NCTC 13368 = assay: microbe, parasite or virus in culture; type: cell-based, Klebsiella pneumoniae; settings: K. pneumoniae NCTC 13368 (R); shown in µM
# Summary of the method: (§1)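 Peptides 128→2 μg/mL, 2-fold series; inoculum ~5 × 10^5 CFU/mL from overnight culture (OD600 0.01, mixed 1:1). MHB non-cation-adjusted for bacteria, RPMI 1640 + 2% glucose for fungi. 37 °C, 20 h, OD600. MIC50/MIC90 at 50%/90% inhibition; n ≥ 3.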
# K. pneumoniae M6 = assay: microbe, parasite or virus in culture; type: cell-based, Klebsiella pneumoniae; settings: K. pneumoniae M6 (S); shown in µM
# Summary of the method: as §1
# C. krusei NCPF 3876 = assay: microbe, parasite or virus in culture; type: cell-based; settings: C. krusei NCPF 3876; shown in µM
# Summary of the method: as §1
# C. albicans NCPF 3281 = assay: microbe, parasite or virus in culture; type: cell-based; settings: C. albicans NCPF 3281
# Summary of the method: as §1
# [1] = tested on: C. parapsilosis NCPF 3209; assay: microbe, parasite or virus in culture; type: cell-based; settings: C. parapsilosis NCPF 3209; shown in µM
# Summary of the method: as §1
# C. glabrata NCPF 8018 = assay: microbe, parasite or virus in culture; type: cell-based; settings: C. glabrata NCPF 8018
# Summary of the method: as §1
# C. tropicalis NCPF 8760 = assay: microbe, parasite or virus in culture; type: cell-based; settings: C. tropicalis NCPF 8760; shown in µM
# Summary of the method: as §1
# A. baumannii ATCC 17978 = assay: microbe, parasite or virus in culture; type: cell-based, Acinetobacter baumannii; settings: A. baumannii ATCC 17978 (S); shown in µM
# Summary of the method: as §1
# A. baumannii AYE = assay: microbe, parasite or virus in culture; type: cell-based, Acinetobacter baumannii; settings: A. baumannii AYE (R); shown in µM
# Summary of the method: as §1
# E. coli NCTC 12923 = assay: microbe, parasite or virus in culture; type: cell-based, Escherichia coli; settings: E. coli NCTC 12923 (S); shown in µM
# Summary of the method: as §1
# E. coli LEC001 = assay: microbe, parasite or virus in culture; type: cell-based, Escherichia coli; settings: E. coli LEC001 (R); shown in µM
# Summary of the method: as §1
# P. aeruginosa NCTC 13437 = assay: microbe, parasite or virus in culture; type: cell-based, Pseudomonas aeruginosa; settings: P. aeruginosa NCTC 13437 (R); shown in µM
# Summary of the method: as §1
# P. aeruginosa PAO1 = assay: microbe, parasite or virus in culture; type: cell-based, Pseudomonas aeruginosa; settings: P. aeruginosa PAO1 (S)
# Summary of the method: as §1
# C. auris TDG 1912 = assay: microbe, parasite or virus in culture; type: cell-based, Candida auris; settings: C. auris TDG 1912
# Summary of the method: as §1
# S. aureus (MRSA) USA300 = assay: microbe, parasite or virus in culture; type: cell-based, Staphylococcus aureus; settings: S. aureus (MRSA) USA300 (R); shown in µM
# Summary of the method: as §1
# S. aureus (MRSA) 1199B = assay: microbe, parasite or virus in culture; type: cell-based, Staphylococcus aureus; settings: S. aureus (MRSA) 1199B (R); shown in µM
# Summary of the method: as §1
# [2] = tested on: S. aureus (MRSA) NCTC 13616; assay: microbe, parasite or virus in culture; type: cell-based, Staphylococcus aureus; settings: S. aureus (MRSA) NCTC 13616 (R); shown in µM
# Summary of the method: as §1
# [3] = tested on: S. aureus (MSSA) ATCC 9144; assay: microbe, parasite or virus in culture; type: cell-based, Staphylococcus aureus; settings: S. aureus (MSSA) ATCC 9144 (S); shown in µM
# Summary of the method: as §1
# [4] = 50% growth inhibition, RPMI 1640 + 2% glucose, 37 °C, 20 h
# [5] = 90% growth inhibition, RPMI 1640 + 2% glucose, 37 °C, 20 h
# [6] = MHB, 37 °C, 20 h, OD600, min. three biological repeats
# [7] = 50% growth inhibition, RPMI 1640 + 2% glucose, 37 °C, 20 h, OD600
# [8] = 90% growth inhibition, RPMI 1640 + 2% glucose, 37 °C, 20 h, OD600
SMILES,% HaCat cell death at initial screening (256μg/mL) ± SD (HaCat cell line) [%],HC10 (concentration causing 10% hemolysis) (human erythrocytes) [µg/mL],HC50 (concentration causing 50% hemolysis) (human erythrocytes) [µg/mL],Modal MIC (K. pneumoniae NCTC 13368) [µM],Modal MIC (K. pneumoniae M6) [µM],Modal MIC50 (C. krusei NCPF 3876) [µM],Modal MIC90 (C. krusei NCPF 3876) [µM],Modal MIC50 (C. albicans NCPF 3281; shown in µM) [µM],Modal MIC90 (C. albicans NCPF 3281; shown in µM) [µM],Modal MIC50 [1] [µM],Modal MIC90 [1] [µM],Modal MIC50 (C. glabrata NCPF 8018; [4]) [µg/mL],Modal MIC90 (C. glabrata NCPF 8018; [5]) [µg/mL],Modal MIC50 (C. glabrata NCPF 8018; shown in µM) [µM],Modal MIC90 (C. glabrata NCPF 8018; shown in µM) [µM],Modal MIC50 (C. tropicalis NCPF 8760) [µM],Modal MIC90 (C. tropicalis NCPF 8760) [µM],Modal MIC (A. baumannii ATCC 17978) [µM],Modal MIC (A. baumannii AYE) [µM],Modal MIC (E. coli NCTC 12923) [µM],other results
CC[C@H](C)[C@H](NC(=O)[C@H](C)NC(=O)[C@H](CCCCN)NC(=O)[C@@H]1CCCN1C(=O)[C@@H](NC(=O)[C@H](CC(C)C)NC(=O)[C@H](CO)NC(=O)[C@H](Cc1ccccc1)NC(=O)[C@H](CC(C)C)NC(=O)[C@@H](N)Cc1ccccc1)[C@@H](C)CC)C(=O)NCC(=O)NCC(=O)N[C@@H](CC(C)C)C(=O)N[C@H](C(=O)N[C@@H](CO)C(=O)N[C@@H](C)C(=O)N[C@@H](Cc1ccccc1)C(=O)N[C@@H](CCCCN)C(=O)O)[C@@H](C)CC [AamAP-S1],85 ±17.9,128,195,–,–,–,–,–,–,–,–,–,–,–,–,–,–,–,–,–,–
CC[C@H](C)[C@H](NC(=O)[C@H](C)NC(=O)[C@H](CCCCN)NC(=O)[C@@H]1CCCN1C(=O)[C@@H](NC(=O)[C@H](CC(C)C)NC(=O)[C@H](CO)NC(=O)[C@H](Cc1ccccc1)NC(=O)[C@H](CC(C)C)NC(=O)[C@@H](N)Cc1ccccc1)[C@@H](C)CC)C(=O)NCC(=O)NCC(=O)N[C@@H](CC(C)C)C(=O)N[C@H](C(=O)N[C@@H](CO)C(=O)N[C@@H](C)C(=O)N[C@@H](Cc1ccccc1)C(=O)N[C@@H](CCCCN)C(N)=O)[C@@H](C)CC [AamAP-S1a],97.6 ±12.6,45,112,32.4,32.4,32.4,32.4,64.8,64.8,64.8,64.8,> 128,> 128,> 64.8,> 64.8,8.1,8.1,4.1,4.1,8.1,Modal MIC (E. coli LEC001): 8.1 µM; HC50 (concentration causing 50% hemolysis) (human erythrocytes; listed as AamAP1-S1a): lower than 256 µg/mL; Modal MIC (P. aeruginosa NCTC 13437): 64.8 µM; Modal MIC (P. aeruginosa PAO1; [6]): > 128 µg/mL; Modal MIC (P. aeruginosa PAO1; shown in µM): > 64.8 µM; Modal MIC50 (C. auris TDG 1912; [7]): > 128 µg/mL; Modal MIC90 (C. auris TDG 1912; [8]): > 128 µg/mL; Modal MIC50 (C. auris TDG 1912; shown in µM): > 64.8 µM; Modal MIC90 (C. auris TDG 1912; shown in µM): > 64.8 µM; Modal MIC (S. aureus (MRSA) USA300): 4.1 µM; Modal MIC (S. aureus (MRSA) 1199B): 2 µM; Modal MIC [2]: 4.1 µM; Modal MIC [3]: 2 µM
CC[C@H](C)[C@H](NC(=O)[C@H](C)NC(=O)[C@H](CCCCN)NC(=O)[C@H](CCCNC(=N)N)NC(=O)[C@@H](NC(=O)[C@H](CC(C)C)NC(=O)[C@H](CO)NC(=O)[C@H](Cc1ccccc1)NC(=O)[C@H](CC(C)C)NC(=O)[C@@H](N)Cc1ccccc1)[C@@H](C)CC)C(=O)NCC(=O)NCC(=O)N[C@@H](CC(C)C)C(=O)N[C@H](C(=O)N[C@@H](CO)C(=O)N[C@@H](C)C(=O)N[C@@H](Cc1ccccc1)C(=O)N[C@@H](CCCCN)C(=O)O)[C@@H](C)CC [A3],100 ± 9.7,9,–,–,–,–,–,–,–,–,–,–,–,–,–,–,–,–,–,–,–
CC[C@H](C)[C@H](NC(=O)[C@H](C)NC(=O)[C@H](CCCCN)NC(=O)[C@@H]1CCCN1C(=O)[C@@H](NC(=O)[C@H](CC(C)C)NC(=O)[C@H](CCCCN)NC(=O)[C@H](Cc1ccccc1)NC(=O)[C@H](CC(C)C)NC(=O)[C@@H](N)Cc1ccccc1)[C@@H](C)CC)C(=O)N[C@@H](CCCCN)C(=O)N[C@@H](CCCCN)C(=O)N[C@@H](CC(C)C)C(=O)N[C@H](C(=O)N[C@@H](CO)C(=O)N[C@@H](CCCCN)C(=O)N[C@@H](Cc1ccccc1)C(=O)N[C@@H](CCCCN)C(=O)O)[C@@H](C)CC [AamAP1-Lys] (H-FLFKLIPKAIKKLISKFK-OH),99.1 ± 8.7,94,–,–,–,–,–,–,–,–,–,–,–,–,–,–,–,–,–,–,–
CC[C@H](C)[C@H](N)C(=O)N[C@@H](CC(C)C)C(=O)NCC(=O)N[C@@H](CCCCN)C(=O)N[C@H](C(=O)N[C@@H](Cc1c[nH]c2ccccc12)C(=O)N[C@@H](CCCCN)C(=O)N1CCC[C@H]1C(=O)N[C@H](C(=O)N[C@@H](CCCCN)C(=O)N[C@@H](CCCCN)C(=O)N[C@@H](CC(C)C)C(=O)N[C@@H](Cc1ccccc1)C(N)=O)[C@@H](C)CC)[C@@H](C)CC [K7P8K11-IsCTa] (H-ILGKIWKPIKKLF-NH2),89.2 ± 9.1,–,–,39.5,19.8,19.8,39.5,> 79,> 79,39.5,79,> 128,> 128,> 79,> 79,4.9,9.9,4.9,4.9,9.9,Modal MIC50 (C. albicans NCPF 3281; [4]): > 128 µg/mL; Modal MIC90 (C. albicans NCPF 3281; [5]): > 128 µg/mL; Modal MIC (E. coli LEC001): 39.5 µM; Modal MIC (P. aeruginosa NCTC 13437): 39.5 µM; Modal MIC (P. aeruginosa PAO1; [6]): > 128 µg/mL; Modal MIC (P. aeruginosa PAO1; shown in µM): > 79 µM; Modal MIC50 (C. auris TDG 1912; [7]): > 128 µg/mL; Modal MIC90 (C. auris TDG 1912; [8]): > 128 µg/mL; Modal MIC50 (C. auris TDG 1912; shown in µM): > 79 µM; Modal MIC90 (C. auris TDG 1912; shown in µM): > 79 µM; Modal MIC (S. aureus (MRSA) USA300): 39.5 µM; Modal MIC (S. aureus (MRSA) 1199B): 19.8 µM; Modal MIC [2]: 39.5 µM; Modal MIC [3]: 4.9 µM

# Source: article PMC11191095, “QSAR Reveals Decreased Lipophilicity of Polar Residues Determines the Selectivity of Antimicrobial Peptide Activity” (ACS Omega, 2024)
